Reference: patent publication US10464912B2, “Choline cocrystal of epalrestat” (BIONEVIA PHARMACEUTICALS, INC., priority 2008, dated 2019)

Settings: ambient temperature, after approximately 24 hours, FIG. 6A
Protocol: Samples were taken at approximately 1, 3, 6, and 24 hours, and analyzed by UV spectrophotometry using a SpectraMax M2 UV-VIS spectrophotometer. Wavelength calibration and photometric accuracy were performed using the SpectraMax Pro 5 software as an internal calibration of the instrument. The detector was zeroed with a reference well on a microplate filled with water on which data were obtained, and those data were subtracted from collected data. Samples were analyzed in the UV range at room temperature in the wells of a 96-well quartz plate.

dissolved concentration of epalrestat (solubility in water): 249 µg/mL
SMILES: CC(/C=C1\SC(=S)N(CC(=O)O)C1=O)=C\c1ccccc1 [choline hydrogen diepalrestat]
